The values that follow come from the METLIN SMRT retention time set (Domingo-Almenara et al. 2019).

The data set can be described thus: gradient 5% acetonitrile 3 min, to 50% in 2 min, to 85% in 15 min, held 3 min, 100 µL/min. As to conditions: column: Zorbax Extend-C18 2.1 x 50 mm; eluents: water / acetonitrile, 0.1% formic acid. An outline of the steps:
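Retention times come from adduct peaks that were picked computationally and then checked by hand. The standards, pure and pooled in mixtures of ~100 molecules, were run on a Zorbax Extend-C18 column (2.1 × 50 mm, 1.8 μm) at 100 μL/min with water and acetonitrile, each with 0.1% formic acid. Detection was by quadrupole time-of-flight mass spectrometry in positive and negative ionization mode, with a dead volume of 40 μL and a dwell volume of 900 μL.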
`Cc1cc(=O)n(CC(=O)Nc2ccc3c(c2)OCO3)c(N2CCCCC2)n1`: the RP-LC retention time was found to be 666 s.
The same measure for `CCc1ccc(Oc2cc(N3CCC(C(=O)NCc4ccc(C)cc4)CC3)ncn2)cc1`: 1050 s.
Regarding `CNC(=O)c1cn(CC(C)C)c(=O)c2ccccc12`, the RP-LC retention time was 853 s.
In turn, `Cc1oc(-c2ccc(Cl)cc2)nc1CN1CCCC(C(=O)NC2CCCCCC2)C1` (stereo not drawn) had an RP-LC retention time of 810 s.
The same measure for `COC(=O)c1ccc(Cl)cc1NC(=O)N1CCN(CCn2cnc3cccnc32)CC1`: 663 s.
With `C[C@@H]1CN(C(=O)NC2CCCC2)C[C@H]1c1nc(-c2ccncc2)no1` the figure was 671 s; with `O=C(Nc1ccc(F)cc1F)c1c(O)c2cccnc2n(-c2cccc(F)c2)c1=O`, 918 s; with `Cc1cc2c(cc1CNC(=O)Cn1c(C(F)(F)F)nc3ccccc31)OCCCO2`, 849 s.
The same measure for `CC(C)CNC(=O)NCC1Cn2cccc2C(=O)N1Cc1ccccc1` (stereo not drawn): 744 s.
`CC(NC(=O)c1ccccc1)c1nc(-c2ccc(NS(=O)(=O)c3cccs3)cc2)no1` (stereo not drawn) had an RP-LC retention time of 890 s.
With `Cn1cc(-c2nc(C(=O)Nc3ccc(F)cc3F)cs2)c2cccnc21` the figure was 1070 s; with `CCOC(=O)c1c(NCCc2cccs2)c2cc(Cl)ccc2[nH]c1=O`, 826 s; with `O=C(C1CCN(S(=O)(=O)c2ccc3[nH]c(=O)ccc3c2)CC1)N1CCN(c2ccccc2)CC1`, 735 s.
On to `CC(=O)Nc1ccc(NC(=O)CN2C(=O)C3CCCCN3C(=O)c3ccccc32)cc1` (stereo not drawn), for which the RP-LC retention time came out at 651 s.
With `CC(=O)N1CCc2cc(N3CC(C(=O)Nc4cccc(Cl)c4C)CC3=O)ccc21` (stereo not drawn) the figure was 723 s; with `COc1ccc(C2C(C(=O)N3CCC(C)CC3)c3cc(OC)c(OC)cc3C(=O)N2C)cc1OC` (stereo not drawn), 764 s; with `CCn1cccc(-c2nnc(SCC(=O)NCc3ccco3)n2C)c1=O`, 576 s.
Molecule `COCCN1C(=O)Cc2ccccc2C1C(=O)NCc1ccc(Cl)cc1` (stereo not drawn) yielded an RP-LC retention time of 898 s.
With `O=C(NCc1ccc(Br)cc1)C1CCN(c2nnc(-c3ccccc3)o2)CC1` the figure was 884 s; with `Cc1cc(=O)n(CC(=O)N(C)C2CCCCC2)c(N2CCOCC2)n1`, 656 s; with `CCOc1ccc(NS(=O)(=O)c2cc(-c3nc(C(C)(C)C)cs3)cs2)cc1`, 1240 s.
`O=c1c2cc(-c3ccccc3Cl)nn2cnn1Cc1nc(-c2ccccc2)no1` yielded an RP-LC retention time of 1110 s.
With `O=c1ccc(-c2ccc(S(=O)(=O)N3CCN(c4ccccn4)CC3)s2)n[nH]1` the figure was 595 s; with `CCc1noc(CC2CCOC3(CCN(S(=O)(=O)c4ccc(Cl)cc4)CC3)C2)n1` (stereo not drawn), 1070 s; with `COc1cccc(NC(=O)Cn2nc3c(Oc4ccc(F)cc4)nccn3c2=O)c1`, 812 s.
The molecule `COc1cccc(NC(=O)C2CCN(S(=O)(=O)c3ccc4[nH]c(=O)sc4c3)CC2)c1` showed an RP-LC retention time of 783 s.
In turn, `COc1cc(NC(=O)C2CCN(S(=O)(=O)c3cn(C(C)C)cn3)CC2)cc(OC)c1` had an RP-LC retention time of 751 s.
The same measure for `O=C(CN1C(=O)CCCc2cc(S(=O)(=O)N3CCCCC3)ccc21)NCc1ccccc1`: 847 s; for `Cc1nnc2n1CCC(N(C)C(=O)Cc1cccs1)CC2` (stereo not drawn): 571 s; for `Cc1ccc(-n2cc(C(=O)O)nn2)cc1F`: 684 s.
With `COc1ccc2c(c1)-c1nc(NC(=O)c3ccc(C)cc3)sc1CC2` the figure was 1170 s; with `Cc1nc(-c2cc(S(=O)(=O)N3CCC(C(=O)N4CCc5ccccc54)CC3)c(C)s2)no1`, 1040 s.
With `O=C(Nc1ccccc1Cl)N1CCN(CCn2c(-c3ccncc3)nc3cccnc32)CC1` the figure was 588 s; with `COc1ccc(-c2nc3cc(C)ccn3c2Nc2ccc3c(c2)OCCO3)cc1`, 714 s; with `O=C(Nc1ccc(F)cc1)NC1CCN(c2ccc(F)cc2)C1=O` (stereo not drawn), 783 s.
In the case of `COc1cc(-c2nc(Cn3c(C)nc4ccccc4c3=O)no2)cc(OC)c1OC`, the RP-LC retention time was 801 s.
The same measure for `CCCCOc1ccc(-c2cc3c4nn(CC(=O)NC5CCCC5)c(=O)n4ccn3n2)cc1`: 1050 s.
The same measure for `Cc1ccc(C)c(CNC(=O)C2CCN(c3cncnc3N3CCOCC3)CC2)c1`: 654 s.
For the molecule `O=C(CN1C(=O)NC2(CCCCC2)C1=O)Nc1ccc(Cl)cc1F`, the RP-LC retention time is 809 s.
The same measure for `CCC1Oc2ccc(S(=O)(=O)N3CCC(C(=O)NCc4cccc(C)c4)CC3)cc2NC1=O` (stereo not drawn): 893 s.
With `COc1cc(NC(=O)C2CCN(S(=O)(=O)c3ccc4c(c3)NC(=O)C(C)O4)CC2)cc(OC)c1` (stereo not drawn) the figure was 811 s.
`CCc1noc(NC(C)=O)c1-c1ccc(C)c(S(=O)(=O)Nc2ccc(Br)c(C)c2)c1` registered an RP-LC retention time of 951 s.
Turning to `O=c1c(NCCc2cccnc2)nc2ccncc2n1Cc1ccccc1`, the RP-LC retention time is 539 s.
For `CCOc1ccc(-c2nc(CN(c3ccccc3)S(=O)(=O)c3cccs3)c(C)o2)cc1OC`, the RP-LC retention time turned out to be 1120 s.
For the molecule `Cc1ccc(-c2cc3c4nnc(SCC(=O)Nc5cccc(C)c5C)n4ccn3n2)cc1C`, the RP-LC retention time worked out at 1000 s.
With `CCc1nnc(NC(=O)C2CCCN(c3ncnc4c3nc3n4CCCCC3)C2)s1` (stereo not drawn) the figure was 724 s.
With `c1ccc([C@@H]2CN(Cc3ccncc3)C[C@H]2COc2cccnc2)nc1` the figure was 516 s; with `CCCCNC(=O)Cn1c(C)nc2onc(CC)c2c1=O`, 726 s.
The same measure for `Cc1ccc(NC(=O)N2CCC(n3c(-c4ccco4)nc4cccnc43)C2)cc1Cl` (stereo not drawn): 806 s; for `Cc1cc(C)c(NS(=O)(=O)c2cc(-c3nc(C)cs3)sc2C)c(C)c1`: 1190 s; for `O=C1CCCc2cc(S(=O)(=O)N3CCCC(C(=O)N4CCc5ccccc5C4)C3)ccc2N1` (stereo not drawn): 792 s.
In turn, `Cc1ccc(S(=O)(=O)N2CCCOC2CNC(=O)C(=O)NCc2cccs2)cc1` (stereo not drawn) yielded an RP-LC retention time of 806 s.
With `CCCC(=O)Nc1nc2ccc(CCC(=O)Nc3cccc(C(=O)OCC)c3)cc2s1` the figure was 950 s.
With `O=C(NC1CC1)C1CCCN(c2ccc3cc(S(=O)(=O)N4CCCCC4)ccc3n2)C1` (stereo not drawn) the figure was 683 s; with `O=C1N(c2ccccc2)CC12CCN(S(=O)(=O)Cc1ccccc1)CC2`, 654 s.
In turn, `Cc1nc(-c2ccccc2)sc1C(=O)NC1CC1` registered an RP-LC retention time of 799 s.
Take `O=S(=O)(c1cc(-c2nnc(C3CC3)o2)co1)N1CCOCC1`: the RP-LC retention time is 730 s.
The same measure for `C=CCN(CC=C)c1nc(-c2ccc([N+](=O)[O-])cc2)nc2ccccc12`: 1060 s.
